In patent publication US5512553A, “7-(substituted)-8-(substituted)-9-(substituted amino)-6-demethyl-6-deoxytetracyclines” (American Cyanamid Company, priority 1995, dated 1996):
Counter-ions that a name gives are not always drawn.

What was measured:
E. coli UBMS 88-1 (tetB) = experiment: microbe, parasite or virus in culture; format: cell-based; conditions: Escherichia coli, 18 h
Protocol: (§1) Method for In Vitro Antibacterial Evaluation (Table I)
(§2) The minimum inhibitory concentration (MIC), the lowest concentration of the antibiotic which inhibits growth of the test organism, is determined by the agar dilution method using Muller-Hinton II agar (Baltimore Biological Laboratories). An inoculum density of 1-5×10^5 CFU/ml and an antibiotic concentration (32-≤0.015 μg/ml) is used. The plates are incubated for 18 hours at 35° C. in a forced air incubator. The test organisms comprise strains sensitive to tetracycline and genetically defined strains that are resistant to tetracycline, due to inability to bind bacterial ribosomes (tetM).

[1] = test system: S. aureus UBMS 88-5 (tetM); experiment: microbe, parasite or virus in culture; format: cell-based; conditions: Staphylococcus aureus, 18 h
Protocol: as §1, §2

[2] = test system: S. aureus UBMS 90-1 (tetM); experiment: microbe, parasite or virus in culture; format: cell-based; conditions: Staphylococcus aureus, 18 h
Protocol: as §1, §2

[3] = test system: S. aureus UBMS 88-7 (tetK); experiment: microbe, parasite or virus in culture; format: cell-based; conditions: Staphylococcus aureus, 18 h
Protocol: as §1, §2

[4] = test system: S. aureus UBMS 90-2 (tetM); experiment: microbe, parasite or virus in culture; format: cell-based; conditions: Staphylococcus aureus, 18 h
Protocol: as §1, §2

Enteroc. spp. 12201 = experiment: In vitro antibacterial evaluation, MIC by agar dilution; format: cell-based; conditions: agar dilution, Muller-Hinton II agar, 18 hours at 35° C.; Enteroc. spp. 12201; read-out: MIC
Protocol: as §1, §2

[5] = test system: S. aureus UBMS 90-3 (sensitive); experiment: as above; format: cell-based; conditions: Staphylococcus aureus; agar dilution, Muller-Hinton II agar, 18 hours at 35° C.; S. aureus UBMS 90-3 (sensitive); read-out: MIC
Protocol: as §1, §2

S. faecal. ATCC 29212 = experiment: as above; format: cell-based; conditions: agar dilution, Muller-Hinton II agar, 18 hours at 35° C.; S. faecal. ATCC 29212; read-out: MIC
Protocol: as §1, §2

[6] = test system: E. coli UBMS 89-2 (sensitive); experiment: as above; format: cell-based; conditions: Escherichia coli, Muller-Hinton II agar, 18 hours at 35° C.
Protocol: as §1, §2

[7] = test system: S. aureus UBMS 88-4 (sensitive); experiment: as above; format: cell-based; conditions: Staphylococcus aureus; agar dilution, Muller-Hinton II agar, 18 hours at 35° C.; S. aureus UBMS 88-4 (sensitive); read-out: MIC
Protocol: as §1, §2

[8] = test system: S. aureus SMITH (MP) (sensitive); experiment: as above; format: cell-based; conditions: Staphylococcus aureus; agar dilution, Muller-Hinton II agar, 18 hours at 35° C.; S. aureus SMITH (MP) (sensitive); read-out: MIC
Protocol: as §1, §2

E. coli ATCC 25922 = experiment: as above; format: cell-based; conditions: Escherichia coli, ATCC25922; agar dilution, Muller-Hinton II agar, 18 hours at 35° C.; E. coli ATCC 25922; read-out: MIC
Protocol: as §1, §2

[9] = test system: S. aureus IVES 1983 (MP) (meth. resistant); experiment: as above; format: cell-based; conditions: Staphylococcus aureus; agar dilution, Muller-Hinton II agar, 18 hours at 35° C.; S. aureus IVES 1983 (MP) (meth. resistant); read-out: MIC
Protocol: as §1, §2

[10] = test system: E. coli UBMS 88-2 (sensitive); experiment: as above; format: cell-based; conditions: Escherichia coli, 18 h
Protocol: as §1, §2

[11] = test system: S. aureus ATCC 29213 (sensitive); experiment: as above; format: cell-based; conditions: Staphylococcus aureus, ATCC29213; agar dilution, Muller-Hinton II agar, 18 hours at 35° C.; S. aureus ATCC 29213 (sensitive); read-out: MIC
Protocol: as §1, §2

[12] = test system: S30 extract from E. coli strain MRE 600 (tetracycline sensitive); experiment: E. coli in vitro cell free protein translation system, Wild Type S30; format: biochemical; conditions: for % Inhibition Wild Type S30: 35S-methionine incorporation, 30 minutes at 37° C.
Excerpt: (§3) E. coli in Vitro protein Translation System (Table II)
(§4) An in vitro, cell free, protein translation system using extracts from E. coli strain MRE 600 (tetracycline sensitive) and a derivative of MRE 600 containing the tetM determinant has been developed based on literature methods J. M. Pratt, Coupled Transcription-translation in Prokaryotic Cell-free Systems, Transcription and Translation, a Practical Approach, (B. D. Hames and S. J. Higgins, eds) p. 179-209, IRL Press, Oxford-Washington, 1984!.
(§5) Using the system described above, the tetracycline compounds of the present invention are tested for their ability to inhibit protein synthesis in vitro. Briefly, each 10 μl reaction contains S30 extract (a whole extract) made from either tetracycline sensitive cells or an isogenic tetracycline resistant (tetM) strain, low molecular weight components necessary for transcription and translation (i.e., ATP and GTP), a mix of 19 amino acids (no methionine), ^35 S labeled methionine, DNA template (either pBR322 or pUC119), and either DMSO (control) or the novel tetracycline compound to be tested ("novel TC") dissolved in DMSO.
(§6) The reactions are incubated for 30 minutes at 37° C. Timing is initiated with the addition of the S30 extract, the last component to be added. After 30 minutes, 2.5 μl of the reaction is removed and mixed with 0.5 ml of 1N NaOH to destroy RNA and tRNA. Two to three ml of 25% trichloroacetic acid is added and the mixture incubated at room temperature for 15 minutes. The trichloroacetic acid precipitated material is collected on Whatman GF/C filters and washed with a solution of 10% trichloroacetic acid. The filters are dried and the retained radioactivity, representing incorporation of ^35 S-methionine into polypeptides, is counted using standard liquid scintillation methods.
(§7) The percent inhibition (P.I.) of protein synthesis is determined to be: [formula]

[13] = test system: tetracycline sensitive and resistant Gram-positive and Gram-negative bacteria; experiment: In vitro antibacterial activity, summary statements of the testing results; format: cell-based
Protocol: as §1, §2

[14] = test system: S30 extract from derivative of E. coli MRE 600 containing the tetM determinant; experiment: E. coli in vitro cell free protein translation system, TetM S30; format: biochemical; conditions: cell-free extracts from strain MRE600 (tetM)
Excerpt: as §3, §4, §5, §6, §7

For `CN(C)[C@@H]1C(O)=C(C(N)=O)C(=O)[C@@]2(O)C(O)=C3C(=O)c4c(cc(Cl)c(NC=O)c4O)CC3CC12` (stereo partly drawn) [A, 8-Chloro-4-(dimethylamino)-9-(formylamino)-1,4,4a,5,5a,6,11,12a-octahydro-3,10,12,12a-tetrahydroxy-1,11-dioxo-2-naphthacenecarboxamide hydrochloride or sulfate], the MIC (E. coli UBMS 88-1 (tetB)) was 32 µg/mL, the MIC [1] was 0.12 µg/mL and the MIC [2] was 0.25 µg/mL. It also gave an MIC [3] of 16 µg/mL, an MIC [4] of 0.03 µg/mL and an MIC (Enteroc. spp. 12201) of 0.5 µg/mL. The MIC [5] was under 0.015 µg/mL, the MIC (S. faecal. ATCC 29212) was under 0.015 µg/mL and the MIC [6] was 0.25 µg/mL. It also gave an MIC [7] of under 0.015 µg/mL, an MIC [8] of under 0.015 µg/mL and an MIC (E. coli ATCC 25922) of 0.12 µg/mL. It also gave an MIC [9] of 32 µg/mL, an MIC [10] of 0.12 µg/mL and an MIC [11] of under 0.015 µg/mL. For the same compound, the “% Inhibition Wild Type S30” value ([12]; Conc. 0.3 mg/ml) was 98%, the “% Inhibition Wild Type S30” value ([12]; Conc. 1.0) was 93% and the “inhibition of protein synthesis, in words” value ([12]; cell-free extracts from tetracycline susceptible strain MRE600) was “effectively inhibited”. The “in vitro activity, in words” value ([13]; tetracycline resistant strains containing tetM (S. aureus UBMS 88-5, 90-1 and 90-2)) was “good in vitro activity”, the “in vitro activity compared with minocycline, in words” value ([13]; tetracycline susceptible strains) was “equally as effective as minocycline” and the “inhibition of protein synthesis, in words” value [14] was “effectively inhibited”.
